Assays:
Assay type in all cases: cell-based
androgen receptor (AR) = target: T1, androgen receptor (AR) (Homo sapiens, UniProt P10275, T878A); assay: SARD-mediated AR degradation, western blot in LNCaP cells
T1 construct: endogenous in cells; host or cells: LNCaP
T1 sequence (P10275 1-920 T878A): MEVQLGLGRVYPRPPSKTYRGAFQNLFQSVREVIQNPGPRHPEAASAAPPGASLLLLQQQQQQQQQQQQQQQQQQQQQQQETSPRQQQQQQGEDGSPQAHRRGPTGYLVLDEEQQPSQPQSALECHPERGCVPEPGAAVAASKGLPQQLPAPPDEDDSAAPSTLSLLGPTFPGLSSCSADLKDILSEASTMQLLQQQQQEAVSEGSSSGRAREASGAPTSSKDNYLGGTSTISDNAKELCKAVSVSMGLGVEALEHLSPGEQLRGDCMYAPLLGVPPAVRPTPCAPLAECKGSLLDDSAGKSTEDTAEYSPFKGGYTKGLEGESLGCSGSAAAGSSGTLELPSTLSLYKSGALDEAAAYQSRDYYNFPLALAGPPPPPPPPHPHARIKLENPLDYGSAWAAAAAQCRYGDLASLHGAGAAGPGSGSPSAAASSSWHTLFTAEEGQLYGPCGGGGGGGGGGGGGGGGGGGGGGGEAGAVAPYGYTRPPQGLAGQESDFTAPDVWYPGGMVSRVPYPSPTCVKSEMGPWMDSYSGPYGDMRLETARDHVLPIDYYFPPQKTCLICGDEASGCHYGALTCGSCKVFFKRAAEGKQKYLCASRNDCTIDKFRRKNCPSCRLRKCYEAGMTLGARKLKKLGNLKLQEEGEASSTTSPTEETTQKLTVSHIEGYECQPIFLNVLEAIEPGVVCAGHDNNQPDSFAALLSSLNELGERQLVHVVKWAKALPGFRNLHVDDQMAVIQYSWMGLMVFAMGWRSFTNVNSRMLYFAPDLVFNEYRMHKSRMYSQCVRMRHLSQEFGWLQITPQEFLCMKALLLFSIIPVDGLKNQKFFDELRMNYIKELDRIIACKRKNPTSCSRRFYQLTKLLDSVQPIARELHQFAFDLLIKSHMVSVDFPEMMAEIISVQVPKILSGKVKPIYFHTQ
Method: FIG. 15A illustrates representative western blots of SARD mediated AR degradation. FIG. 15B is a graph illustrating the percentage of remaining AR as a function of SARD compound concentration.
(§1) FIGS. 32A-32B show a series of representative western blots of SARD-mediated AR degradation according to the present description. LNCaP cells were treated with indicated compounds for 24 hours and SARD 279 and RU59063 were used at 2.5 μM and 25 μM, respectively (FIG. 32A).
(§2) LNCaP and PC3 cells were obtained from ATCC. LNCaP/AR-876L and LNCaP/AR cells were generated by infecting LNCaP cells with the 876L or WT, respectively, AR. All cells were grown at 37° C. in RPMI and supplemented with 10% FBS, 100 U/ml carbenicillin and 100 μg/ml streptomycin. AR (5153) and Hsp70 (4872) antibodies were obtained from Cell Signaling. β-actin antibody (AC-74) was purchased from Sigma. Geldanamycin was purchased from Invivogen. The indicated cells were washed twice with cold PBS, and the cells were lysed in lysis buffer (1×PBS, 1% NP-40, 1 mM EDTA, 40 mM HEPES) with protease inhibitors. The lysates were cleared by centrifugation at 10,000 g for 5 min. The total protein concentration was determined by Bradford assay, and 10 μg of protein was loaded onto an 8% Bis-Tris gel. The blots were processed by standard procedures with the indicated antibodies, and the band intensities were quantified by ImageJ (US National Institutes of Health).

[1] = tested on: AR target genes (FKBP52, PMPEA 1, NKX3.1) in LNCaP-AR cells; assay: AR-dependent gene expression by qPCR in LNCaP-AR cells; details: 18 hours; for AR agonist activity: expression of AR target genes: qPCR normalized to GAPDH
Method: (§3) LNCaP-AR cells were treated with hormone for 18 hours as indicated and then, RNA was isolated and FKBP52 expression was assessed by qPCR. GAPDH was used to normalize expression. Error represents standard deviation (Panel A). LNCaP cell proliferation assay in the presence of indicated compounds at 3 μM and then, the assay was performed in 10% FBS, and only viable cells were counted at each indicated day (Panel B). […] LNCaP/AR-F876L cells were treated with indicated compounds for 24 hours in 5% charcoal stripped FBS, and then, mRNA was prepared and the relative PSA mRNA was determined by qPCR (Panel D).
FIGS. 34A-34B are a series of graphs illustrating relative pMPEA1 mRNA levels (FIG. 34A) or relative NKX3.1 mRNA levels (FIG. 34B) after treated with SARDS compounds according to the present description. LNCaP-AR cells were treated with hormone for 18 hours and subsequently, mRNA was isolated and FKBP52 expression was assessed by qPCR. GAPDH was used to normalize expression. Error represents standard deviation.
The effects of the SARDS in the present description on AR-dependent gene expression in AR overexpressing LNCaP-AR cells, a validated cellular model of CRPC were examined. LNCaP-AR cells were treated with hormone for 18 hours as indicated. RNA was isolated and FKBP52 expression was assessed by QPCR. GAPDH was used to normalize expression. Error represents standard deviation.

LnCAP cells [2] = assay: Proliferation of androgen-dependent LnCAP cells
Method: as §3
For FIG. 33, panel B, 2,000 cells in RPMI media, supplemented with 10% FBS, 100 U/ml carbenicillin and 100 μg/ml streptomycin, were plated into each well in a 6-well plate. Two days after plating, the cells were treated with indicated compounds. The number of cells in each well was counted with a hemocytometer using Trypan blue to distinguish viable cells.

HEK 293T = assay: Cell proliferation assay with HEK 293T cells; details: 3 μM
Method: (§4) FIGS. 35A-35B are a series of graphs illustrating results of cell proliferation assay. Cell proliferation assay was performed with AR-negative PC-3 prostate cancer cells (FIG. 35A). Indicated compounds at shown doses were added to previously plated PC-3 cells in phenol-red free RPMI, supplemented with 5% charcoal stripped FBS. CellTiterGlo readings were taken at indicated days and the data are plotted as a % of proliferation from Day 0. Cell proliferation assay was performed with HEK293 cells (FIG. 35B), which were plated at 2,000 cells/well in a 6-well plate and dosed with indicated compounds at 3 μM.

[3] = tested on: PC3 human prostate cancer cell line; assay: Cell proliferation assay with AR-negative PC-3 prostate cancer cells (CellTiterGlo); details: 5% charcoal stripped FBS
Method: as §4

HEK293 cells = assay: General cell toxicity in AR-independent HEK293 cells; details: HEK293, 1 μM, 48 h
Method: (§5) To access general cell toxicity, AR-independent HEK293 and HELA cells were treated with 1 μM SARD 279.

HeLa cells = assay: General cell toxicity in AR-independent HELA cells; details: 1 μM, 48 h
Method: as §5

LnCAP cells [4] = assay: LNCaP cell proliferation assay in the presence of 1 nM R1881 (CellTiterGlo); details: 5% charcoal stripped serum, 7 days
Method: as §3
For FIG. 33, panel C, the LNCaP cells were washed with PBS, seeded at 5,000 cells per well in a 96-well plate in 5% Charcoal Stripped Serum (Omega) in phenol-red free RPMI media (Invitrogen). […] Baseline CellTiterGlo (Promega) reading was taken immediately after addition of compounds and 7 days later. The data are plotted so that the Y axis reflects the degree of proliferation at Day 7, compared to Day 0.

Hsp70 = Hsp70 immunoblot in LNCaP cells treated with SARD 279 and geldanamycin; details: 24 hours
Method: as §1, §2

| Structure (SMILES) | AR degradation (in words) (androgen receptor (AR)) | AR agonist activity: expression of AR target genes [1] | Proliferation of HEK 293T cells (HEK 293T) | Proliferation of PC3 cells [3] | further results |
| --- | --- | --- | --- | --- | --- |
| CC1(C)C(=O)N(c2ccc(C#N)c(C(F)(F)F)c2)C(=S)N1CCCCO [RU59063, 4-[3-(4-hydroxybutyl)-4,4-dimethyl-5-oxo-2-thioxoimidazolidin-1-yl]-2-(trifluoromethyl)benzonitrile, reference compound] | no degradation was detected | increasing expression of a number of AR target genes | – | – | – |
| CC1(C)C(=O)N(c2ccc(C#N)c(C(F)(F)F)c2)C(=S)N1CCCC(=O)NCCOCCOCCOCCOC12CC3CC(CC(C3)C1)C2 [SARD 033, N-(2-(2-(2-(2-(Adamantan-1-yloxy)ethoxy)ethoxy)ethoxy)ethyl)-4-(3-(4-cyano-3-(trifluoromethyl)phenyl)-5,5-dimethyl-4-oxo-2-thioxoimidazolidin-1-yl)butanamide] | – | no such agonist activity | unaffected | unaffected | Cell growth / proliferation of LnCAP cells (LnCAP cells [2]; 1 μM, several days): significantly attenuated cell growth; Proliferation of LNCaP cells, viable cell count (LnCAP cells [2]; 3 μM, 10% FBS, hemocytometer with Trypan blue, over 9 days): suppressed proliferation with similar efficacy to MDV3100; Antagonism of gene expression induced by R1881 ([1]; qPCR): antagonized gene expression induced by the synthetic androgen R1881 |
| CC1(C)C(=O)N(c2ccc(C#N)c(C(F)(F)F)c2)C(=S)N1CCCC(=O)NCCOCCOC(=O)CC12CC3CC(CC(C3)C1)C2 [SARD 279, 2-(2-(4-(3-(4-Cyano-3-(trifluoromethyl)phenyl)-5,5-dimethyl-4-oxo-2-thioxoimidazolidin-1-yl)butanamido)ethoxy)ethyl 2-(adamantan-1-yl)acetate] | – | – | – | – | DC50 (androgen receptor (AR); read-out: DC50 (half maximum degradation concentration) of AR): 1000 nM; Cytotoxicity compared to vehicle (HEK293 cells): did not display cytotoxic results; Cytotoxicity compared to vehicle (HeLa cells): did not display cytotoxic results |
| CNC(=O)c1ccc(N2C(=S)N(c3ccc(C#N)c(C(F)(F)F)c3)C(=O)C2(C)C)cc1F [MDV3100, reference compound] | – | – | unaffected | unaffected | Antiproliferative activity in the presence of 1 nM R1881 (LnCAP cells [4]): ineffective in the presence of higher androgen levels |
| CCOCCOCCNC(=O)CCCN1C(=S)N(c2ccc(C#N)c(C(F)(F)F)c2)C(=O)C1(C)C [SARD 280, 4-(3-(4-Cyano-3-(trifluoromethyl)phenyl)-5,5-dimethyl-4-oxo-2-thioxoimidazolidin-1-yl)-N-(2-(2-ethoxyethoxy)ethyl)butanamide] | affected degradation only at higher concentrations and did not achieve complete AR degradation at the concentrations assayed | – | – | – | – |
| COC1=C2C[C@@H](C)C[C@H](OC)[C@H](O)[C@@H](C)/C=C(\C)[C@H](OC(N)=O)[C@@H](OC)/C=C\C=C(/C)C(=O)NC(=CC1=O)C2=O [geldanamycin, (4E,6Z,8S,9S,10E,12S,13R,14S,16R)-13-hydroxy-8,14,19-trimethoxy-4,10,12,16-tetramethyl-3,20,22-trioxo-2-azabicyclo[16.3.1]docosa-1(21),4,6,10,18-pentaen-9-yl carbamate] | – | – | – | – | Hsp70 levels (immunoblot) (Hsp70): geldanamycin-dependent increase in Hsp70 levels |

Source: patent publication US20160022642A1, “Compounds Useful for Promoting Protein Degradation and Methods Using Same” (Yale University, priority 2014, published 2016)
